Test results taken from ChEMBL document CHEMBL4842377, “Synthesis and biological evaluation of selective histone deacetylase 6 inhibitors as multifunctional agents against Alzheimer's disease” (Eur J Med Chem, 2021).
Blank lines part the entries; values can stand above or below the compound they belong to. Calls of active or inactive are those of the source. The rule behind the calls is not given here.

What was measured:
[1] = target: T1, Protein deacetylase HDAC6 (Homo sapiens, UniProt Q9UBN7); experiment: Inhibition of human HDAC6 using fluorogenic substrate incubated for 1 hrs by fluorescence plate reader assay
T1 sequence (Q9UBN7 whole entry): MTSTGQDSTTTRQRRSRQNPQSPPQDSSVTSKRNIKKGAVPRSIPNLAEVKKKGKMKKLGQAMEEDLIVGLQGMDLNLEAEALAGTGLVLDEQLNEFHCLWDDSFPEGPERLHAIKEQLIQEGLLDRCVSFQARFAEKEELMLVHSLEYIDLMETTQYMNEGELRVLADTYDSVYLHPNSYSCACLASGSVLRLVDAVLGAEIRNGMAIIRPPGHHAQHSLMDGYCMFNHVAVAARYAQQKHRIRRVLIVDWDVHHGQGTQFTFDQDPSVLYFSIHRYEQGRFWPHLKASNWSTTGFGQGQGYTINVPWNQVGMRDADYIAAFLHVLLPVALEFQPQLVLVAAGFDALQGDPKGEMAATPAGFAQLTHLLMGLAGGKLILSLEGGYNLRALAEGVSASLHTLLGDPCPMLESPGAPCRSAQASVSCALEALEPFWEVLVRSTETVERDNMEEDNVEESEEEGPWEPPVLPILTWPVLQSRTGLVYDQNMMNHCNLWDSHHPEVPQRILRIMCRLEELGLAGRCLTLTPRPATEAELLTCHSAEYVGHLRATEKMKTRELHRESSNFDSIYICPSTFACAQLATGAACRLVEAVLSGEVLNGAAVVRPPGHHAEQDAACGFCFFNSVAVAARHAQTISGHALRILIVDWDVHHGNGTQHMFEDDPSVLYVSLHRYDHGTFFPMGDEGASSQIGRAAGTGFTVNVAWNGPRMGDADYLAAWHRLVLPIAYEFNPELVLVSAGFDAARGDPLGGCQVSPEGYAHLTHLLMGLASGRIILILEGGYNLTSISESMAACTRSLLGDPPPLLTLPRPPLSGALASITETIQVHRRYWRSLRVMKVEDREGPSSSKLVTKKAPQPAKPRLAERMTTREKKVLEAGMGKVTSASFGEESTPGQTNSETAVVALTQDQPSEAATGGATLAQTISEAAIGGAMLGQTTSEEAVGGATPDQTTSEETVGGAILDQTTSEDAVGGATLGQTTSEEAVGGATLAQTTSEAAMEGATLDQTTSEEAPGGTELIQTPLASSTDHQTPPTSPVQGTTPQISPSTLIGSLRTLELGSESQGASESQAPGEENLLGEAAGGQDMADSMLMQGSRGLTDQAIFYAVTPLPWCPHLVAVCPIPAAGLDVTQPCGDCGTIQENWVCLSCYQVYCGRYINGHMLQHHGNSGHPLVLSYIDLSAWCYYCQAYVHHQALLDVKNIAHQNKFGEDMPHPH

SH-SY5Y [2] = experiment: Neuroprotective activity against amyloid beta (1 to 42)-induced cytotoxicity in human SH-SY5Y cells assessed as increase in cell viability at 3 uM after 24 hrs by MTT assay (reference value: 60.4%); type: functional
Homo sapiens [3] = species on record: Homo sapiens; experiment: Selectivity ratio of IC50 for human HDAC6 to IC50 for human HDAC2
[4] = target: T2, Protein deacetylase HDAC6 (Homo sapiens) (UniProt Q9UBN7); experiment: Inhibition of HDAC6 in human SH-SY5Y cells assessed as reduction in tau phosphorylation at Ser396 residue by Western blot analysis; type: cell-based
T2 sequence (whole entry): T1 sequence (Q9UBN7 whole entry)

Homo sapiens [5] = species on record: Homo sapiens; experiment: Selectivity ratio of IC50 for human HDAC6 to IC50 for human HDAC11
Homo sapiens [6] = species on record: Homo sapiens; experiment: Selectivity ratio of IC50 for human HDAC6 to IC50 for human HDAC4
[7] = Disaggregation of Cu2+ induced amyloid beta (1 to 42 residues) (unknown origin) aggregation measuring reduction in fluorescence intensity at 20 uM after 24 hrs by thioflavin-T fluorescence method relative to control; parameters: scale not given: the % may be the effect or the level left
[8] = target: T2, Protein deacetylase HDAC6 (Homo sapiens); experiment: Inhibition of HDAC6 in human SH-SY5Y cells assessed as increase in acetylated alpha tubulin level measured after 24 hrs by Western blot analysis; type: cell-based; details: dose 0.25-1 µM
Homo sapiens [9] = species on record: Homo sapiens; experiment: Selectivity ratio of IC50 for human HDAC6 to IC50 for human HDAC10
[10] = target: T2, Protein deacetylase HDAC6 (Homo sapiens); experiment: Inhibition of HDAC6 in human SH-SY5Y cells assessed as increase in acetylated histone level measured after 24 hrs by Western blot analysis; type: cell-based
Homo sapiens [11] = species on record: Homo sapiens; experiment: Selectivity ratio of IC50 for human HDAC6 to IC50 for human HDAC8
[12] = target: T2, Protein deacetylase HDAC6 (Homo sapiens); experiment: Inhibition of HDAC6 in human SH-SY5Y cells assessed as reduction in tau phosphorylation at Ser396 residue at 20 uM by Western blot analysis; type: cell-based
Homo sapiens [13] = species on record: Homo sapiens; experiment: Selectivity ratio of IC50 for human HDAC6 to IC50 for human HDAC1
SH-SY5Y [14] = experiment: Induction of neurite outgrowth in human SH-SY5Y cells at 10 uM incubated for 3 days by inverted microscopy; type: functional, cell-based; details: time 3.0 day
SH-SY5Y [15] = experiment: Neuroprotective activity against Cu2+/amyloid beta (1 to 42)-induced toxicity in human SH-SY5Y cells assessed as increase in cell viability at 3 uM after 24 hrs by MTT assay (reference value: 47.2%); type: functional
[16] = Inhibition of Cu2+ induced amyloid beta (1 to 42 residues) (unknown origin) aggregation by measuring reduction in fluorescence intensity at 20 uM after 24 hrs by thioflavin-T fluorescence method relative to control

SMILES: CN(Cc1ccc(C(=O)NO)cn1)C12CC3C[C@@](C)(C1)C[C@](C)(C3)C2
IC50 [1]: 835 nM

SMILES: COc1cc(/C=C/C(=O)CC(=O)/C=C/c2ccc(O)c(OC)c2)ccc1O [CURCUMIN]
Activity (SH-SY5Y [2]): 74.6%

SMILES: CNC(=O)c1ccc(CN(C)C23CC4C[C@@](C)(C2)C[C@](C)(C4)C3)nc1
IC50 [1]: > 1000 nM

SMILES: O=C(/C=C/c1ccc(CN2c3ccccc3Sc3ccccc32)cc1)NO
IC50 [1]: 463 nM

Continued, in another order:

IC50 [1]: 53 nM
SMILES: COc1ccc2c(c1)c1c(n2Cc2ccc(C(=O)NO)cn2)CCN(C)C1

IC50 [1]: > 1000 nM
SMILES: CCNC(=O)Cn1cc(CN2c3ccccc3Sc3ccccc32)cn1

IC50 [1]: 83 nM
SMILES: Cc1ccc2c(c1)c1c(n2Cc2ccc(C(=O)NO)cn2)CCN(C)C1

Selectivity ratio (Homo sapiens [3]): 772
inhibition [4]: Dose-Dependent Effect
Selectivity ratio (Homo sapiens [5]): 1690
Selectivity ratio (Homo sapiens [6]): 2220
Activity [7]: 40%
inhibition [8]: Dose-Dependent Effect
Selectivity ratio (Homo sapiens [9]): 3400
inhibition [10]: Active
Selectivity ratio (Homo sapiens [11]): 2410
inhibition [12]: 50%
Selectivity ratio (Homo sapiens [13]): 292
SMILES: O=C(NO)c1ccc(CN2c3ccccc3Sc3ccccc32)nc1
Activity (SH-SY5Y [14]): Active

Activity [7]: Active
inhibition [16]: 38.9%
SMILES: Oc1c(I)cc(Cl)c2cccnc12 [CLIOQUINOL]
Activity (SH-SY5Y [15]): 86.2%
